Test results as given in patent publication US20250195521A1 (Revolution Medicines, Inc., priority 2020, published 2025).
Like-named read-outs stand apart in the source and are kept apart here.

Tests used:
[1] = system: NCI-H358 cells (K-Ras G12C); experiment: CellTiter-Glo cell viability, NCI-H358; assay type: cell-based, human; conditions: K-Ras G12C, 5-day treatment, read-out: H358 Cell Viability IC50
In short: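 Cells seeded, compound dispensed straight into wells, 5-day exposure. Plates brought to room temperature ~30 min, CellTiter-Glo luminescence measured. Normalized to DMSO (%), 4-parameter logistic fit.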

KRAS G12S = KRAS G12S (Homo sapiens (Human), UniProt P01116+P62937, G12S); experiment: Ras-Raf disruption/FRET/MOA assay (BRAF RBD, Cyclophilin A); assay type: biochemical; conditions: read-out: KRAS G12S FRET IC50
KRAS G12S, sequence (P01116 other isoform, or with tags, fused parts or gaps G12S): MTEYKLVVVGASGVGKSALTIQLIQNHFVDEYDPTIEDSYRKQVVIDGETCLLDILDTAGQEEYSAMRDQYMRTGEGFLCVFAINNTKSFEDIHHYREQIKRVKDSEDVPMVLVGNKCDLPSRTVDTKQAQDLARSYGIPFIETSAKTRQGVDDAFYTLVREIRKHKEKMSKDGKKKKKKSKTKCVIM
KRAS G12S, sequence (P62937 whole entry): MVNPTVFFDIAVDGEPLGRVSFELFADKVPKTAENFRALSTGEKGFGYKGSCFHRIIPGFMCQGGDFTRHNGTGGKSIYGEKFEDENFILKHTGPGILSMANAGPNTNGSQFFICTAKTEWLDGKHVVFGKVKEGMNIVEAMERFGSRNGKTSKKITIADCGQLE
In short: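 Ras-GMPPNP (12.5 nM), BRAF RBD (50 nM) and 25 μM Cyclophilin A were incubated with compound for 3 h at 25° C, then detected 1.5 h with anti-His Eu and anti-GST APC; IC50 values follow from the reduced TR-FRET ratio.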

NRAS G12C = NRAS G12C (Homo sapiens (Human), UniProt P01111+P62937, G12C); experiment: as above; assay type: biochemical; conditions: read-out: NRAS G12C FRET data IC50
NRAS G12C, sequence (P01111 whole entry G12C): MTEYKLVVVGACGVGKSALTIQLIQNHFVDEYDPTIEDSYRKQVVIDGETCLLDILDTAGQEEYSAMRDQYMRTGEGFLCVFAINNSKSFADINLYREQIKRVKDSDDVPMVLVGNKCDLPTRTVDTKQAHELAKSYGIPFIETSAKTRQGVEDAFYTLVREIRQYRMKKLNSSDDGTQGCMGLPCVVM
NRAS G12C, sequence (P62937 whole entry): as the sequence (P62937 whole entry) above
In short: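 25 μM tagless Cyclophilin A, 12.5 nM His6-Ras-GMPPNP and 50 nM GST-BRAF RBD in HEPES pH 7.3 buffer with 5 mM MgCl2, with compound (10-point 3-fold series from 30 μM final) for 3 h at 25 °C. Anti-His Eu and anti-GST APC then added for 1.5 h. IC50 from TR-FRET ratio decrease versus DMSO.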

[2] = system: K-Ras G12C (NCI-H358 cells); experiment: Potency assay: pERK in NCI-H358 cells; assay type: cell-based, human; conditions: NCI-H358 cells, 4 hours, read-out: pERK EC50 (H358 KRAS G12C)
In short: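 Cells plated the day before were exposed for 4 h at 37° C, 5% CO2 to a 10-point, 3-fold DMSO dilution series (10 mM top stock), in duplicate. Phospho-ERK was read by AlphaLISA SureFire Ultra or by In-Cell Western with DRAQ5 DNA stain, and IC50 came from a 4-parameter sigmoidal fit.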

NCI-H358 (K-Ras G12C) = experiment: CellTiter-Glo cell viability assay, NCI-H358; assay type: cell-based, human; conditions: 5-day treatment; read-out: H358 Cell Viability assay data (K-Ras G12C, IC50)
In short: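 Cells seeded, compound added directly to plates; day 5: plates to RT ~30 min, CellTiter-Glo luminescence; (sample/avg DMSO)*100; 4-parameter fit.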

In the case of `CCn1c(-c2cccnc2[C@H](C)OC)c2c3cc(ccc31)-c1csc(n1)C[C@H](NC(=O)[C@H](C(C)C)N1C[C@@H](c3ccccc3)CC1=O)C(=O)N1CCC[C@H](N1)C(=O)OCC(C)(C)C2` (single isomer, unassigned) [Compound A544], the IC50 ([1]; Homo sapiens, NCI-H358, 120 h) is reported as 0.1 to 1 µM, the IC50 (KRAS G12S) is reported as 1 to 10 µM and the IC50 (NRAS G12C) is reported as 0.1 to 1 µM. It also gave an EC50 ([2]; Homo sapiens) of under 5 µM.

Work on `CCn1c(-c2cccnc2[C@H](C)OC)c2c3cc(ccc31)-c1cccc(c1)C[C@H](NC(=O)[C@H](C(C)C)N(C)C(C)=O)C(=O)N1CCC[C@H](N1)C(=O)OCC(C)(C)C2` [Compound A61] yielded an IC50 ([1]; Homo sapiens, NCI-H358, 120 h) of 1 to 10 µM, an IC50 (KRAS G12S) of 1 to 10 µM and an IC50 (NRAS G12C) of 1 to 10 µM. It also gave an EC50 ([2]; Homo sapiens) of under 5 µM.

With `CCn1c(-c2cccnc2[C@H](C)OC)c2c3cc(ccc31)-c1cc(O)cc(c1)C[C@H](NC(=O)[C@@H](C(C)C)N(C)C(C)=O)C(=O)N1CCC[C@H](N1)C(=O)OCC(C)(C)C2` [Compound A256] the IC50 ([1]; Homo sapiens, NCI-H358, 120 h) was 1 to 10 µM, the IC50 (KRAS G12S) was 1 to 10 µM and the IC50 (NRAS G12C) was 1 to 10 µM. It also gave an EC50 ([2]; Homo sapiens) of under 5 µM.

With `CCn1c(-c2cccnc2[C@H](C)OC)c2c3cc(ccc31)-c1csc(n1)C[C@H](NC(=O)C1(F)CCC1)C(=O)N1CCC[C@H](N1)C(=O)OCC(C)(C)C2` [Compound A361] the IC50 ([1]; Homo sapiens, NCI-H358, 120 h) was 0.1 to 1 µM, the IC50 (KRAS G12S) was 0.1 to 1 µM and the IC50 (NRAS G12C) was 0.1 to 1 µM. It also gave an EC50 ([2]; Homo sapiens) of under 5 µM.

`CCn1c(-c2cccnc2[C@H](C)OC)c2c3cc(ccc31)-c1csc(n1)C[C@H](NC(=O)C1(F)CC1)C(=O)N1CCC[C@H](N1)C(=O)OCC(C)(C)C2` [Compound A362] showed an IC50 ([1]; Homo sapiens, NCI-H358, 120 h) of 0.1 to 1 µM, an IC50 (KRAS G12S) of 0.1 to 1 µM and an IC50 (NRAS G12C) of 0.1 to 1 µM. For the same molecule, the EC50 ([2]; Homo sapiens) was under 5 µM.

Work on `CCO[C@@H]1c2nc(cs2)-c2ccc3c(c2)c(c(-c2cc(C4CCN(C5COC5)CC4)cnc2[C@H](C)OC)n3CC)CC(C)(C)COC(=O)[C@@H]2CCCN(N2)C(=O)[C@H]1NC(=O)[C@H]1[C@H](C)[C@@H]1C` [Compound A449, (1r,2R,3S)—N-((6^3S,3S,4S,Z)-3-ethoxy-1^1-ethyl-1^2-(2-((S)-1-methoxyethyl)-5-(1-(oxetan-3-yl)piperidin-4-yl)pyridin-3-yl)-10,10-dimethyl-5,7-dioxo-6^1,6^2,6^3,6^4,6^5,6^6-hexahydro-1^1H-8-oxa-2 (4,2)-thiazola-1 (5,3)-indola-6 (1,3)-pyridazinacycloundecaphane-4-yl)-2,3-dimethylcyclopropane-1-carboxamide] yielded an IC50 [1] of 0.1 to 1 µM, an IC50 (KRAS G12S) of 1 to 10 µM and an EC50 [2] of under 5 µM. For the same molecule, the IC50 (NCI-H358 (K-Ras G12C)) was 0.01 to 0.1 µM.

`CCn1c(-c2cccnc2[C@H](C)OC)c2c3cc(ccc31)-c1csc(n1)[C@@H](OCC1CCN(C)CC1)[C@H](NC(=O)[C@H]1C[C@@H]1C)C(=O)N1CCC[C@H](N1)C(=O)OCC(C)(C)C2` [Compound A451, (1S,2S)—N-((6^3S,3S,4S,Z)-1^1-ethyl-1^2-(2-((S)-1-methoxyethyl)pyridin-3-yl)-10,10-dimethyl-3-((1-methylpiperidin-4-yl)methoxy)-5,7-dioxo-6^1,6^2,6^3,6^4,6^5,6^6-hexahydro-1^1H-8-oxa-2 (4,2)-thiazola-1 (5,3)-indola-6 (1,3)-pyridazinacycloundecaphane-4-yl)-2-methylcyclopropane-1-carboxamide] gave an IC50 [1] of 0.01 to 0.1 µM, an IC50 (KRAS G12S) of 0.1 to 1 µM and an EC50 [2] of under 5 µM. The IC50 (NCI-H358 (K-Ras G12C)) was 0.01 to 0.1 µM.

`CCOC1c2nc(cs2)-c2ccc3c(c2)c(c(-c2cc(C4CC5COCC(C4)N5C4CC4)cnc2C(C)OC)n3CC)CC(C)(C)COC(=O)C2CCCN(N2)C(=O)C1NC(=O)C1C(C)C1C` [Compound A483, (1r,2R,3S)—N-((6^3S,3S,4S,Z)-12-(5-((1R,5S,7s)-9-cyclopropyl-3-oxa-9-azabicyclo[3.3.1]nonan-7-yl)-2-((S)-1-methoxyethyl)pyridin-3-yl)-3-ethoxy-1^1-ethyl-10,10-dimethyl-5,7-dioxo-6^1,6^2,6^3,6^4,6^5,6^6-hexahydro-1^1H-8-oxa-2 (4,2)-thiazola-1 (5,3)-indola-6 (1,3)-pyridazinacycloundecaphane-4-yl)-2,3-dimethylcyclopropane-1-carboxamide] gave an IC50 [1] of under 0.01 µM, an IC50 (KRAS G12S) of 0.01 to 0.1 µM and an EC50 [2] of under 5 µM. For the same molecule, the IC50 (NCI-H358 (K-Ras G12C)) was under 0.01 µM.
